Source: patent publication US6589943B2, “Formulation of amphiphilic heparin derivatives for enhancing mucosal absorption” (Mediplex Corporation, Korea, priority 2001, dated 2003)

How the values were obtained:
[1] = zeta potential of particles in sodium bicarbonate buffer; format: physicochemical
Protocol: Surface Charges of Heparin-DOCA Particle. Zeta potentials of heparin-DOCA particles in sodium bicarbonate buffer were measured according to procedures well known in the art. The negative potential of heparin-DOCA conjugate particles was decreased by mixing with free DOCA. This was due to the fact that the DOCA moiety coupled to heparin could be exposed on the surface of heparin-DOCA conjugate particles by mixing with free DOCA.

[2] = background, literature; cited from earlier work

Compound | Zeta Potential [1] [mv] | absorption in the GI tract [2]
C[C@H](CCC(=O)O)[C@H]1CC[C@H]2[C@@H]3CC[C@@H]4C[C@H](O)CC[C@]4(C)[C@H]3C[C@H](O)[C@]12C [Bile Acid, deoxycholic acid] | −22.3 ± 11.4 | –
heparin | – | not absorbed in the GI tract
